Tests used:
Format in all cases: in vivo
Smartweed [1] = assay: pre-emergent herbicidal activity test
Method: (§1) Table II summarizes results of tests conducted to determine the pre-emergent as well as the post-emergent herbicidal activity of the compounds. The pre-emergent test was conducted as follows:
(§2) A good grade of top soil was placed in aluminum pans and compacted to a depth of three-eighths to one-half inch from the top of the pan. On the top of the soil was placed a predetermined number of seeds or vegetative propagules of various plant species. The soil required to level fill the pans after seeding or adding vegetative propagules was weighed into a pan. A known amount of the active ingredient applied in a solvent or as a wettable powder and the soil were thoroughly mixed, and used as a cover layer for prepared pans. After treatment the pans were moved into a greenhouse bench where they were watered from below as needed to give adequate moisture for germination and growth.
(§3) A herbicial rating code was used to signify the extent of phytotoxicity of each species. The rating are defined as follows: […]

Johnsongrass [2] = assay: pre-emergent herbicidal activity test
Method: as §1, §2, §3

Barnyard grass [3] = assay: pre-emergent herbicidal activity test
Method: as §1, §2, §3

Cocklebur [4] = assay: pre-emergent herbicidal activity test
Method: as §1, §2, §3

Bromus tectorum [5] = assay: pre-emergent herbicidal activity test
Method: as §1, §2, §3

Morningglory [6] = assay: pre-emergent herbicidal activity test
Method: as §1, §2, §3

Lambsquarter [7] = assay: pre-emergent herbicidal activity test
Method: as §1, §2, §3

Velvetleaf [8] = assay: pre-emergent herbicidal activity test
Method: as §1, §2, §3

Quackgrass [9] = assay: pre-emergent herbicidal activity test
Method: as §1, §2, §3

Nutsedge [10] = assay: pre-emergent herbicidal activity test
Method: as §1, §2, §3

Canada Thistle [11] = assay: pre-emergent herbicidal activity test
Method: as §1, §2, §3

Smartweed [12] = assay: post-emergent herbicidal activity test
Method: (§4) The post-emergent tests were conducted as follows. The active ingredients are applied in spray form to two or three-week old specimens of various plant species. The spray, a solution or wettable powder suspension containing the appropriate rate of active ingredient to give the desired test rate and a surfactant, is applied to the plants. The treated plants are placed in a greenhouse and unless otherwise noted approximately four weeks later the effects are observed and recorded.

Johnsongrass [13] = assay: post-emergent herbicidal activity test
Method: as §4

Barnyard grass [14] = assay: post-emergent herbicidal activity test
Method: as §4

Cocklebur [15] = assay: post-emergent herbicidal activity test
Method: as §4

Bromus tectorum [16] = assay: post-emergent herbicidal activity test
Method: as §4

Morningglory [17] = assay: post-emergent herbicidal activity test
Method: as §4

Lambsquarter [18] = assay: post-emergent herbicidal activity test
Method: as §4

Velvetleaf [19] = assay: post-emergent herbicidal activity test
Method: as §4

Quackgrass [20] = assay: post-emergent herbicidal activity test
Method: as §4

Nutsedge [21] = assay: post-emergent herbicidal activity test
Method: as §4

Canada Thistle [22] = assay: post-emergent herbicidal activity test
Method: as §4

[23] = *11.2 Kg/Ha, observed approximately 14 days after treatment
[24] = 11.2 Kg/Ha, approximately 28 days after seeding and treating
[25] = 11.2 Kg/Ha, approximately four weeks later
Further: ranges in brackets are in %.

## Cn1cc(C(=O)OCC2CC(F)(F)C2(F)F)c(-c2cccc(C(F)(F)F)c2)n1 (stereo not drawn) [Example 18]
Smartweed [1]; [23]
  Pre-Emergent herbicidal rating, F Smartweed: 2 (50-74)
Johnsongrass [2]; [23]
  Pre-Emergent herbicidal rating, I Johnsongrass: 0 (0-24)
Barnyard grass [3]; [23]
  Pre-Emergent herbicidal rating, K Barnyard grass: 1 (25-49)
Cocklebur [4]; [23]
  Pre-Emergent herbicidal rating, B Cocklebur: 0 (0-24)
Bromus tectorum [5]; [23]
  Pre-Emergent herbicidal rating, J Bromus tectorum: 1 (25-49)
Morningglory [6]; [23]
  Pre-Emergent herbicidal rating, D Morningglory: 1 (25-49)
Lambsquarter [7]; [23]
  Pre-Emergent herbicidal rating, E Lambsquarter: 2 (50-74)
Velvetleaf [8]; [23]
  Pre-Emergent herbicidal rating, C Velvetleaf: 1 (25-49)
Quackgrass [9]; [23]
  Pre-Emergent herbicidal rating, H Quackgrass: 0 (0-24)
Nutsedge [10]; [23]
  Pre-Emergent herbicidal rating, G Nutsedge: 0 (0-24)
Canada Thistle [11]; [23]
  Pre-Emergent herbicidal rating, A Canada Thistle: 1 (25-49)
Smartweed [12]; [23]
  Post-Emergent herbicidal rating, F Smartweed: 1 (25-49)
Johnsongrass [13]; [23]
  Post-Emergent herbicidal rating, I Johnsongrass: 1 (25-49)
Barnyard grass [14]; [23]
  Post-Emergent herbicidal rating, K Barnyard grass: 1 (25-49)
Cocklebur [15]; [23]
  Post-Emergent herbicidal rating, B Cocklebur: 1 (25-49)
Bromus tectorum [16]; [23]
  Post-Emergent herbicidal rating, J Bromus tectorum: 1 (25-49)
Morningglory [17]; [23]
  Post-Emergent herbicidal rating, D Morningglory: 2 (50-74)
Lambsquarter [18]; [23]
  Post-Emergent herbicidal rating, E Lambsquarter: 2 (50-74)
Velvetleaf [19]; [23]
  Post-Emergent herbicidal rating, C Velvetleaf: 2 (50-74)
Quackgrass [20]; [23]
  Post-Emergent herbicidal rating, H Quackgrass: 1 (25-49)
Nutsedge [21]; [23]
  Post-Emergent herbicidal rating, G Nutsedge: 0 (0-24)
Canada Thistle [22]; [23]
  Post-Emergent herbicidal rating, A Canada Thistle: 1 (25-49)

## C=C(Cl)COC(=O)c1cn(C)nc1-c1cccc(C(F)(F)F)c1 [Example 19]
Smartweed [1]; [23]
  Pre-Emergent herbicidal rating, F Smartweed: 2 (50-74)
Johnsongrass [2]; [23]
  Pre-Emergent herbicidal rating, I Johnsongrass: 1 (25-49)
Barnyard grass [3]; [23]
  Pre-Emergent herbicidal rating, K Barnyard grass: 2 (50-74)
Cocklebur [4]; [23]
  Pre-Emergent herbicidal rating, B Cocklebur: 0 (0-24)
Bromus tectorum [5]; [23]
  Pre-Emergent herbicidal rating, J Bromus tectorum: 1 (25-49)
Morningglory [6]; [23]
  Pre-Emergent herbicidal rating, D Morningglory: 1 (25-49)
Lambsquarter [7]; [23]
  Pre-Emergent herbicidal rating, E Lambsquarter: 3 (75-100)
Velvetleaf [8]; [23]
  Pre-Emergent herbicidal rating, C Velvetleaf: 1 (25-49)
Quackgrass [9]; [23]
  Pre-Emergent herbicidal rating, H Quackgrass: 1 (25-49)
Nutsedge [10]; [23]
  Pre-Emergent herbicidal rating, G Nutsedge: 1 (25-49)
Canada Thistle [11]; [23]
  Pre-Emergent herbicidal rating, A Canada Thistle: 1 (25-49)
Smartweed [12]; [23]
  Post-Emergent herbicidal rating, F Smartweed: 1 (25-49)
Johnsongrass [13]; [23]
  Post-Emergent herbicidal rating, I Johnsongrass: 1 (25-49)
Barnyard grass [14]; [23]
  Post-Emergent herbicidal rating, K Barnyard grass: 1 (25-49)
Cocklebur [15]; [23]
  Post-Emergent herbicidal rating, B Cocklebur: 1 (25-49)
Bromus tectorum [16]; [23]
  Post-Emergent herbicidal rating, J Bromus tectorum: 0 (0-24)
Morningglory [17]; [23]
  Post-Emergent herbicidal rating, D Morningglory: 1 (25-49)
Lambsquarter [18]; [23]
  Post-Emergent herbicidal rating, E Lambsquarter: 1 (25-49)
Velvetleaf [19]; [23]
  Post-Emergent herbicidal rating, C Velvetleaf: 1 (25-49)
Quackgrass [20]; [23]
  Post-Emergent herbicidal rating, H Quackgrass: 0 (0-24)
Nutsedge [21]; [23]
  Post-Emergent herbicidal rating, G Nutsedge: 0 (0-24)
Canada Thistle [22]; [23]
  Post-Emergent herbicidal rating, A Canada Thistle: 1 (25-49)

## CCC(C)OC(=O)c1cn(C)nc1-c1cccc(C(F)(F)F)c1 (stereo not drawn) [Example 20]
Smartweed [1]; [24]
  Pre-Emergent herbicidal rating, F Smartweed: 1 (25-49)
Johnsongrass [2]; [24]
  Pre-Emergent herbicidal rating, I Johnsongrass: 0 (0-24)
Barnyard grass [3]; [24]
  Pre-Emergent herbicidal rating, K Barnyard grass: 3 (75-100)
Cocklebur [4]; [24]
  Pre-Emergent herbicidal rating, B Cocklebur: 0 (0-24)
Bromus tectorum [5]; [24]
  Pre-Emergent herbicidal rating, J Bromus tectorum: 0 (0-24)
Morningglory [6]; [24]
  Pre-Emergent herbicidal rating, D Morningglory: 0 (0-24)
Lambsquarter [7]; [24]
  Pre-Emergent herbicidal rating, E Lambsquarter: 3 (75-100)
Velvetleaf [8]; [24]
  Pre-Emergent herbicidal rating, C Velvetleaf: 0 (0-24)
Quackgrass [9]; [24]
  Pre-Emergent herbicidal rating, H Quackgrass: 0 (0-24)
Nutsedge [10]; [24]
  Pre-Emergent herbicidal rating, G Nutsedge: 0 (0-24)
Canada Thistle [11]; [24]
  Pre-Emergent herbicidal rating, A Canada Thistle: 0 (0-24)
Smartweed [12]; [25]
  Post-Emergent herbicidal rating, F Smartweed: 0 (0-24)
Johnsongrass [13]; [25]
  Post-Emergent herbicidal rating, I Johnsongrass: 1 (25-49)
Barnyard grass [14]; [25]
  Post-Emergent herbicidal rating, K Barnyard grass: 0 (0-24)
Cocklebur [15]; [25]
  Post-Emergent herbicidal rating, B Cocklebur: 1 (25-49)
Bromus tectorum [16]; [25]
  Post-Emergent herbicidal rating, J Bromus tectorum: 0 (0-24)
Morningglory [17]; [25]
  Post-Emergent herbicidal rating, D Morningglory: 0 (0-24)
Lambsquarter [18]; [25]
  Post-Emergent herbicidal rating, E Lambsquarter: 2 (50-74)
Velvetleaf [19]; [25]
  Post-Emergent herbicidal rating, C Velvetleaf: 1 (25-49)
Quackgrass [20]; [25]
  Post-Emergent herbicidal rating, H Quackgrass: 0 (0-24)
Nutsedge [21]; [25]
  Post-Emergent herbicidal rating, G Nutsedge: 0 (0-24)
Canada Thistle [22]; [25]
  Post-Emergent herbicidal rating, A Canada Thistle: 1 (25-49)

Source: patent US4245106A, “Process for the preparation of 1-alkyl-3-aryl-4-pyrazolecarboxylates” (Monsanto Company, priority 1979, dated 1981)
